Data reported in patent US9156801B2, “2-substituted oleanolic acid derivative, method preparing for same, and application thereof” (HANGZHOU BENSHENG PHARMACEUTICAL CO., LTD., priority 2011, dated 2015).
≈ marks a conversion by molar mass, not a printed value.

Assays:
[1] = tested on: A549 cell line; experiment: solid tumor cell growth inhibition, MTT; assay type: cell-based; conditions: Homo sapiens; for IC50: A549, 72 h; for inhibition at 16 µg/mL: A549, 16 μg/mL compound, 72 h, read-out: IR (cell proliferation inhibition rate)
Experimental: (§1) Hep-2 (laryngeal carcinoma), A549 (human lung cancer), CaES-17 (esophageal cancer cell), PC-3 (prostate cancer), CNE (nasopharyngeal carcinoma cell), and SK-OV-3 (ovarian cancer cell), all of which are purchased from China Center For Type Culture Collection; RKO (human colon adenocarcinoma cell), MGC 803 (human gastric cancer cell), MG63 (osteosarcoma) and U87 MG (malignant glioma cell), all of which are purchased from Fuxiang Bio-tech Co. Ltd., Shanghai, China; PANC-1 (pancreatic cancer), Hep G2 (human liver cancer cell), Becap37 (human breast cancer cell), and Hela (human cervical cancer cell), all of which are donated by Cancer Research Institute of Zhejiang University, China.
(§2) Obtaining 4000 well-growing human solid tumor cells and inoculating them into wells of a 96-well cell culture plate. The culture medium is DMEM High Glucose cell culture medium containing 10% fetal bovine serum. The plate is placed in a carbon dioxide cell incubator (5% CO2) at 37° C. for 24 hours. After adding the 2-substituted oleanolic acid derivatives of different concentrations and mixing uniformly, the plate is placed in a carbon dioxide cell incubator (5% CO2) at 37° C. and incubated for 72 hours. Then the relative number of the living cells is determined by MTT method. In this experiment, the cell proliferation inhibition rate in control group (not treated with any compound) is set as 0%.

[2] = tested on: CaES-17 cell line; experiment: solid tumor cell growth inhibition, MTT; assay type: cell-based; conditions: Homo sapiens, CaEs17; for inhibition at 16 µg/mL: CaES-17, 16 μg/mL compound, 72 h, read-out: IR (cell proliferation inhibition rate); for IC50: CaES-17, 72 h
Experimental: as §1, §2

[3] = tested on: PANC-1 cell line; experiment: solid tumor cell growth inhibition, MTT; assay type: cell-based; conditions: Homo sapiens; for IC50: PANC-1, 72 h; for inhibition at 16 µg/mL: PANC-1, 16 μg/mL compound, 72 h, read-out: IR (cell proliferation inhibition rate)
Experimental: as §1, §2

[4] = tested on: PC-3 cell line; experiment: solid tumor cell growth inhibition, MTT; assay type: cell-based; conditions: Homo sapiens; for IC50: PC-3, 72 h; for inhibition at 16 µg/mL: PC-3, 16 μg/mL compound, 72 h, read-out: IR (cell proliferation inhibition rate)
Experimental: as §1, §2

[5] = tested on: RKO cell line; experiment: solid tumor cell growth inhibition, MTT; assay type: cell-based; conditions: Homo sapiens, 72 h; for inhibition at 16 µg/mL: 16 μg/mL compound, read-out: IR (cell proliferation inhibition rate)
Experimental: as §1, §2

[6] = tested on: CNE cell line; experiment: solid tumor cell growth inhibition, MTT; assay type: cell-based; conditions: Homo sapiens, 72 h; for inhibition at 16 µg/mL: 16 μg/mL compound, read-out: IR (cell proliferation inhibition rate)
Experimental: as §1, §2

[7] = tested on: Hela cell line; experiment: solid tumor cell growth inhibition, MTT; assay type: cell-based; conditions: Homo sapiens, 72 h; for IC50: HeLa; for inhibition at 16 µg/mL: Hela, 16 μg/mL compound, read-out: IR (cell proliferation inhibition rate)
Experimental: as §1, §2

[8] = tested on: Hep-2 cell line; experiment: solid tumor cell growth inhibition, MTT; assay type: cell-based; conditions: Homo sapiens; for IC50: HEp-2, 72 h; for inhibition at 16 µg/mL: Hep-2, 16 μg/mL compound, 72 h, read-out: IR (cell proliferation inhibition rate)
Experimental: as §1, §2

[9] = tested on: Becap37 cell line; experiment: solid tumor cell growth inhibition, MTT; assay type: cell-based; conditions: Homo sapiens; for inhibition at 16 µg/mL: Becap37, 16 μg/mL compound, 72 h, read-out: IR (cell proliferation inhibition rate); for IC50: Becap37, 72 h
Experimental: as §1, §2

[10] = tested on: SK-OV-3 cell line; experiment: solid tumor cell growth inhibition, MTT; assay type: cell-based; conditions: Homo sapiens; for IC50: SK-OV-3, 72 h; for inhibition at 16 µg/mL: SK-OV-3, 16 μg/mL compound, 72 h, read-out: IR (cell proliferation inhibition rate)
Experimental: as §1, §2

[11] = tested on: U87 MG cell line; experiment: solid tumor cell growth inhibition, MTT; assay type: cell-based; conditions: Homo sapiens, U-87 MG, 72 h; for inhibition at 16 µg/mL: 16 μg/mL compound, read-out: IR (cell proliferation inhibition rate)
Experimental: as §1, §2

[12] = tested on: MG-63 cell line; experiment: solid tumor cell growth inhibition, MTT; assay type: cell-based; conditions: Homo sapiens; for IC50: MG-63, 72 h; for inhibition at 16 µg/mL: MG-63, 16 μg/mL compound, 72 h, read-out: IR (cell proliferation inhibition rate)
Experimental: as §1, §2

[13] = tested on: MGC 803 cell line; experiment: solid tumor cell growth inhibition, MTT; assay type: cell-based; conditions: Homo sapiens; for inhibition at 16 µg/mL: MGC 803, 16 μg/mL compound, 72 h, read-out: IR (cell proliferation inhibition rate); for IC50: MGC 803, 72 h
Experimental: as §1, §2

[14] = tested on: Kasumi-1 cell line; experiment: leukemia cell growth inhibition, MTT; assay type: cell-based; conditions: Homo sapiens; for inhibition at 16 µg/mL: Kasumi-1, 16 μg/mL compound, 72 h, read-out: IR (cell proliferation inhibition rate); for IC50: Kasumi-1, 72 h
Excerpt: (§3) Leukemia cell lines: leukemia cell lines: K562/adr (drug-resistant, chronic myeloid leukemia, CML), NB4 (acute promyelocytic leukemia, AML), Kasumi-1 (acute myeloid leukemia M2 type, AML-M2), Jurkat (acute lymphoblastic leukemia, ALL), all of which are donated by Cancer Research Institute of Zhejiang University, China; and H9 (acute lymphoblastic leukemia, ALL), which is purchased from China Center for Type Culture Collection (CCTCC).
(§4) Obtaining 6000 well-growing leukemia cells and inoculating them into wells of a 96-well cell culture plate. The culture medium is the 1640 cell culture medium containing 10% fetal bovine serum. After adding the 2-substituted oleanolic acid derivatives of different concentrations and mixing uniformly, placing the plate in a carbon dioxide cell incubator (5% CO2) at 37° C. and incubated for 72 hours. Then the relative number of viable cells is determined by MTT method. In this experiment, cell proliferation inhibition rate in control group (not treated with any compound) is set as 0%.

[15] = tested on: H9 cell line; experiment: leukemia cell growth inhibition, MTT; assay type: cell-based; conditions: Homo sapiens; for IC50: H9, 72 h; for inhibition at 16 µg/mL: H9, 16 μg/mL compound, 72 h, read-out: IR (cell proliferation inhibition rate)
Excerpt: as §3, §4

[16] = tested on: Jurkat cell line; experiment: leukemia cell growth inhibition, MTT; assay type: cell-based; conditions: Homo sapiens, 72 h; for inhibition at 16 µg/mL: 16 μg/mL compound, read-out: IR (cell proliferation inhibition rate)
Excerpt: as §3, §4

[17] = tested on: NB4 cell line; experiment: leukemia cell growth inhibition, MTT; assay type: cell-based; conditions: Homo sapiens, NB-4; for inhibition at 16 µg/mL: NB4, 16 μg/mL compound, 72 h, read-out: IR (cell proliferation inhibition rate); for IC50: NB4, 72 h
Excerpt: as §3, §4

[18] = tested on: K562/adr cell line; experiment: leukemia cell growth inhibition, MTT; assay type: cell-based; conditions: Homo sapiens, 72 h; for IC50: K562/Adr; for inhibition at 16 µg/mL: K562/adr, 16 μg/mL compound, read-out: IR (cell proliferation inhibition rate)
Excerpt: as §3, §4

[19] = tested on: Hep G2 cell line; experiment: solid tumor cell growth inhibition, MTT; assay type: cell-based, human; conditions: Homo sapiens; for inhibition at 16 µg/mL: HepG2, 72 h, Hep G2, 16 μg/mL compound, 72 h, read-out: IR (cell proliferation inhibition rate); for IC50: HepG2, Hep G2, 72 h
Experimental: as §1, §2

[20] = tested on: RPMI8226 cell line; experiment: multiple myeloma cell growth inhibition, MTT; assay type: cell-based; conditions: Homo sapiens, RPMI-8226; for inhibition at 16 µg/mL: RPMI8226, 16 μg/mL compound, 72 h, read-out: IR (cell proliferation inhibition rate); for IC50: RPMI8226, 72 h
Experimental: Multiple myeloma cell lines: RPMI8226 (multiple myeloma), purchased from Fuxiang Bio-tech Co. Ltd., Shanghai, China.
Obtaining 6000 well-growing cells as above and inoculating them into wells of a 96-well cell culture plate. The culture medium is the 1640 cell culture medium containing 10% fetal bovine serum. After adding the 2-substituted oleanolic acid derivatives of different concentrations and mixing uniformly, placing the plate in a carbon dioxide cell incubator (5% CO2) at 37° C. and incubated for 72 hours. Then the relative number of viable cells is determined by MTT method. In this experiment, cell proliferation inhibition rate in control group (not treated with any compound) is set as 0%.

| IC50 [1] | IC50 [2] | IC50 [3] | IC50 [4] | IC50 [5] | IC50 [6] | IC50 [7] | IC50 [8] | IC50 [9] | IC50 [10] | SMILES | inhibition at 16 µg/mL [1] | inhibition at 16 µg/mL [2] | inhibition at 16 µg/mL [3] | inhibition at 16 µg/mL [4] | inhibition at 16 µg/mL [5] | inhibition at 16 µg/mL [6] | inhibition at 16 µg/mL [7] | inhibition at 16 µg/mL [8] | inhibition at 16 µg/mL [9] | inhibition at 16 µg/mL [10] | also measured |
| --- | --- | --- | --- | --- | --- | --- | --- | --- | --- | --- | --- | --- | --- | --- | --- | --- | --- | --- | --- | --- | --- |
| > 16 µg/mL | > 16 µg/mL | > 16 µg/mL | > 16 µg/mL | > 16 µg/mL | > 16 µg/mL | > 16 µg/mL | > 16 µg/mL | > 16 µg/mL | > 16 µg/mL | COC(=O)[C@]12CCC(C)(C)CC1C1=CCC3[C@@]4(C)CC(C(=O)NCCC(C)C)C(=O)C(C)(C)C4CC[C@@]3(C)[C@]1(C)CC2 (some centres unmarked) [BS-OA-031] | -6.3% | -4.7% | -1.4% | 9.8% | -12.1% | 15.8% | 2.5% | 10.5% | -5.8% | 18% | inhibition at 16 µg/mL [11]: 5.3%; IC50 [11]: > 16 µg/mL; IC50 [12]: > 16 µg/mL; inhibition at 16 µg/mL [12]: -1.3%; inhibition at 16 µg/mL [13]: 0.8%; IC50 [13]: > 16 µg/mL; inhibition at 16 µg/mL [14]: 10%; IC50 [14]: > 16 µg/mL; IC50 [15]: > 16 µg/mL; inhibition at 16 µg/mL [15]: 31.9%; inhibition at 16 µg/mL [16]: -28.5%; IC50 [16]: > 16 µg/mL; inhibition at 16 µg/mL [17]: -0.9%; IC50 [17]: > 16 µg/mL; IC50 [18]: 12.1 µg/mL (≈ 20.7 µM); inhibition at 16 µg/mL [18]: 62.2%; inhibition at 16 µg/mL [19]: 6.7%; IC50 [19]: > 16 µg/mL; inhibition at 16 µg/mL [20]: 4.4%; IC50 [20]: > 16 µg/mL |
| > 16 µg/mL | > 16 µg/mL | > 16 µg/mL | > 16 µg/mL | > 16 µg/mL | > 16 µg/mL | 15.8 µg/mL (≈ 25.7 µM) | > 16 µg/mL | > 16 µg/mL | > 16 µg/mL | COC(=O)[C@]12CCC(C)(C)CC1C1=CCC3[C@@]4(C)CC(C(=O)NCCc5ccccn5)C(=O)C(C)(C)C4CC[C@@]3(C)[C@]1(C)CC2 (some centres unmarked) [BS-OA-032] | -6.6% | 22% | 14.5% | 32.5% | -5.3% | 23.6% | 57% | 5.2% | 4.1% | 26.3% | inhibition at 16 µg/mL [11]: 30.4%; IC50 [11]: > 16 µg/mL; IC50 [12]: > 16 µg/mL; inhibition at 16 µg/mL [12]: 4.7%; inhibition at 16 µg/mL [13]: 14.1%; IC50 [13]: > 16 µg/mL; inhibition at 16 µg/mL [14]: 48.6%; IC50 [14]: 16 µg/mL (≈ 25.9 µM); IC50 [15]: 13.6 µg/mL (≈ 22 µM); inhibition at 16 µg/mL [15]: 62.3%; inhibition at 16 µg/mL [16]: 75.4%; IC50 [16]: 10.8 µg/mL (≈ 17.6 µM); inhibition at 16 µg/mL [17]: 85.2%; IC50 [17]: 9.82 µg/mL (≈ 15.9 µM); IC50 [18]: 12.9 µg/mL (≈ 20.9 µM); inhibition at 16 µg/mL [18]: 63.7%; inhibition at 16 µg/mL [19]: 23.7%; IC50 [19]: > 16 µg/mL; inhibition at 16 µg/mL [20]: 30.3%; IC50 [20]: > 16 µg/mL |
